Data reported in article PMC11369193, “Structural insights into human ABCD3-mediated peroxisomal acyl-CoA translocation” (Cell Discovery, 2024).

Experiments:
chABCD3 [1] = system: T1, chABCD3; assay: ATPase activity, malachite green phosphate assay; assay type: biochemical, Homo sapiens; settings: LMNG + CHS detergent; 20 mM Tris-HCl pH 7.5, 2 mM MgCl2, 37 °C; no acyl-CoA (basal)
T1 construct: gene ABCD3; C. elegans PMP2 residues 1-50 fused to human ABCD3 residues 51-659, N-terminal FLAG tag, HEK293F, homodimer; PMP2 segment invisible in structures; with Peroxisomal Membrane Protein related (Caenorhabditis elegans)

chABCD3 [2] = system: T1, chABCD3; assay: ATPase activity, malachite green phosphate assay; cryo-EM structure […] Å (GDN); assay type: biochemical, Homo sapiens; settings: LMNG + CHS detergent; 20 mM Tris-HCl pH 7.5, 2 mM MgCl2, 37 °C; no acyl-CoA (basal); structure with 10 mM ATP/Mg2+
chABCD3 [3] = biological target: T1, chABCD3; assay: stimulation of ATPase activity, malachite green phosphate assay; cryo-EM structure […] Å (digitonin); assay type: biochemical, Homo sapiens; settings: 2 mM ATP; LMNG + CHS; 20 mM Tris-HCl pH 7.5, 2 mM MgCl2, 37 °C; activation of ATPase; two sites per dimer
[4] = biological target: chimeric ABCD3 (chABCD3): N-terminal 50 residues of C. elegans PMP2 fused to the core domains of human ABCD3, wild type (Caenorhabditis elegans | human) (UniProt P28288); assay: cryo-EM structure; purified chABCD3 (~10 mg/mL) in digitonin with 0.5 mM phytanoyl-CoA; C2 symmetry; inward-facing conformation; 2.9 Å
[5] = substrate: Nc1ncnc2c1ncn2[C@@H]1O[C@H](COP(=O)(O)OP(=O)(O)OP(=O)(O)O)[C@@H](O)[C@H]1O; assay: ATPase activity, malachite green phosphate assay; assay type: biochemical, Homo sapiens; settings: LMNG + CHS detergent, 20 mM Tris-HCl pH 7.5, 2 mM MgCl2, 37 °C, no acyl-CoA (basal)

`Nc1ncnc2c1ncn2[C@@H]1O[C@H](COP(=O)(O)OP(=O)(O)OP(=O)(O)O)[C@@H](O)[C@H]1O` [ATP] was tested. Which Km (chABCD3 [1]) did it give?
The Km was 160 µM.

And the Km (chABCD3 [2])?
The Km was 190 µM.

For `CC(C)CCCC(C)CCCC(C)CCCC(C)CC(=O)SCCNC(=O)CCNC(=O)[C@H](O)C(C)(C)COP(=O)(O)OP(=O)(O)OC[C@H]1O[C@@H](n2cnc3c(N)ncnc32)[C@H](O)[C@@H]1OP(=O)(O)O` (some centres unmarked) [phytanoyl-CoA], which EC50 (chABCD3 [3]) is on record?
The EC50 was ~460 nM.

“chimeric ABCD3 (chABCD3): N-terminal 50 residues of C. elegans PMP2 fused to the core domains of human ABCD3, wild type (from UniProt P28288 51-659)” was tested. Which stoichiometry N [4] did it give?
Its stoichiometry N is 2.

B1: hABCD3 (Homo sapiens) (protein)
chain: MAAFSKYLTARNSSLAGAAFLLLCLLHKRRRALGLHGKKSGKPPLQNNEKEGKKERAVVDKVFFSRLIQILKIMVPRTFCKETGYLVLIAVMLVSRTYCDVWMIQNGTLIESGIIGRSRKDFKRYLLNFIAAMPLISLVNNFLKYGLNELKLCFRVRLTKYLYEEYLQAFTYYKMGNLDNRIANPDQLLTQDVEKFCNSVVDLYSNLSKPFLDIVLYIFKLTSAIGAQGPASMMAYLVVSGLFLTRLRRPIGKMTITEQKYEGEYRYVNSRLITNSEEIAFYNGNKREKQTVHSVFRKLVEHLHNFILFRFSMGFIDSIIAKYLATVVGYLVVSRPFLDLSHPRHLKSTHSELLEDYYQSGRMLLRMSQALGRIVLAGREMTRLAGFTARITELMQVLKDLNHGKYERTMVSQQEKGIEGVQVIPLIPGAGEIIIADNIIKFDHVPLATPNGDVLIRDLNFEVRSGANVLICGPNGCGKSSLFRVLGELWPLFGGRLTKPERGKLFYVPQRPYMTLGTLRDQVIYPDGREDQKRKGISDLVLKEYLDNVQLGHILEREGGWDSVQDWMDVLSGGEKQRMAMARLFYHKPQFAILDECTSAVSVDVEGYIYSHCRKVGITLFTVSHRKSLWKHHEYYLHMDGRGNYEFKQITEDTVEFGS
notes: full-length (659 residues), codon-optimized, N-terminal FLAG tag, expressed in HEK293F; LMNG + CHS detergent
With B1 as the molecule, how does the Km [5] read?
Its Km is 240 µM.
